# Data published in patent US8143025B2, “Antibodies against vascular endothelial growth factor receptor-1” (ImClone LLC, priority 2004, dated 2012).
# Assays:
# [1] = tested on: SW480 cells; test: Invasion through MATRIGEL coated membrane; format: cell-based, human; details: 66 nM antibody, 10 ng/mL VEGF-A or 50 ng/mL VEGF-B, 48 hours, p<0.05, FIG. 24
# Procedure: HT-29 cells (2.5×1 10^4) or SW480 cells (1.5×1 10^4) were incubated in medium containing 1% FBS with the anti-VEGFR-1 antibody 18F1 ([…]) 8.0-μm pore size membrane insert (Becton Dickinson Labware, Bedford, Mass.). The inserts were placed into lower chambers containing 10 ng/mL VEGF-A (R&D Systems) or 50 ng/mL VEGF-B (R&D Systems) for 48 hours. Cells remaining in the top chamber of the inserts were removed with a cotton swab. Cells migrating to the underside of the inserts were stained with Diff-Quik (Harleco, Gibbstown, N.J.) and counted in ten random fields at 100× magnification. Statistical analysis was performed using InStat Statistical Software (V2.03, GraphPad Software, San Diego, Calif.).
# [2] = tested on: DU4475 carcinoma cells; test: Cell growth assay (Example 5); format: cell-based, human; details: 3, 10, 30 μg/ml antibody, 50 ng/ml VEGF or 200 ng/ml PlGF, 48 hours
# Procedure: DU4475 carcinoma cells were seeded at a density of 5×10^3/well into 96-well plates in serum-free conditions for 18 hours, and in some case followed by treatment with 100 nM of desferoxamine for additional 5 hours. Inhibitory effect of anti-VEGFR-I antibody on tumor cell growth was determined by incubation of cells with anti-VEGFR-I antibody clones 6F9, 13G12, 15F1 1, and 18F1 at doses of 3, 10, and 30 μg/ml in the presence of 50 ng/ml of VEGF or 200 ng/ml of PlGF for 48 hours. Viable cells were then counted in triplicate using a Coulter cytometer (Coulter Electronics Ltd. Luton, Beds, England). Each experiment was done in triplicate.
# [3] = tested on: MDA-MB-435 xenograft; test: MDA-MB-435 breast tumor xenograft; format: in vivo, mouse
# Procedure: Athymic nude mice (Charles River Laboratories, Wilmington, Mass.) were injected subcutaneously in the left flank area with 2×10^6 of DU4475 cells or 5×10^6 of MDA-MB-231 and MDA-MB-435 cells mixed in Matrigel (Collaborative Research Biochemicals. Bedford, Mass.). In the DU4475 and MDA-MB-231 models, tumors were allowed to reach approximately 200 mm^3 in size and then mice were randomized into groups of 12-16 animals per group. Animals received i.p. administration of the anti-VEGFR-I antibody clones 6F9, 15F11, or 18F1 at a dose of 0.5 mg (MDA-MB-231) or 1 mg (DU4475) three times each week. In the MDA-MB-435 model, the tumor cells were implanted subcutaneously into mammary fat pad area in the mouse. After tumors grew to reach approximately 200 mm^3 in size, mice were randomized into groups of 15 animals per group and intraperitoneally administered with 0.5 mg per dose of 18F1 antibody three times each week. Mice in control groups received an equal volume of saline solution. Treatment of animals was continued for the duration of the experiment. Tumors were measured twice each week with calipers. Tumor volumes were calculated using the formula [π/6 (w1×w2×w2)], where “w1” represents the largest tumor diameter and “w2” represents the smallest tumor diameter. […] Tumor growth was evaluated approximately twice weekly, with tumor volume calculated as π/6* (Length*Width^2), where Length=longest diameter and Width=diameter perpendicular to Length. Tumor dimensions were measured with calipers. T/C % was calculated as 100*(Final Treatment Tumor Volume/Initial Treatment Tumor Volume)/(Final Control Tumor Volume/Initial Control Tumor Volume). […] The effect of treatment on tumor growth was analyzed using repeated measures analysis of variance (RM ANOVA), p<0.05 was considered significant. […] AU treatments were administered i.p. The effect of treatments on tumor growth were analyzed using repeated measures analysis of variance (RM ANOVA), p<0.05 was considered significant.
substance,measurement,setting,value
"18F1: human anti-VEGFR-1 monoclonal antibody clone; VL SEQ ID NO: 16, VH SEQ ID NO: 20 [Clone 18F1]",VEGFR-I ligand induced invasion,[1],completely blocked
same,VEGF and PlGF stimulated proliferation of DU4475 breast carcinoma cells,[2],inhibition
same,tumor growth of the MDA-MB-435 xenograft,"[3]; 0.5 or 1 mg per dose three times each week, ANOVA p<0.05, FIG. 20C",statistically significant suppression
same,growth of MDA-MB-435 xenograft tumors,"[3]; Example 9, intraperitoneal, p<0.05, FIG. 25B",significantly (p<0.05) suppressed
